Data reported in patent publication US12419873B2, “Use of JAK inhibitors in preparation of drugs for treating JAK kinase-related diseases” (ZHUHAI UNITED LABORATORIES CO., LTD., priority 2020, dated 2025).
“Also recorded” adds a separate entry of the source.

Columns and labels:
[1] = tested on: DNCB induced allergic dermatitis in mice; test: In vivo pharmacodynamic study on DNCB induced allergic dermatitis (AD) in mice
Description: The animal allergic dermatitis model induced by 1-chloro-2,4-dinitrobenzene (DNCB) is basically consistent with the clinical manifestations of AD patients.
Preparation method of solvent: vehicle solution is 30% PEG-400+70% (5% HP-β-CD), pH 4-5. Firstly, 35 g HP-β-CD was dissolved in 700 mL MilliQ pure water, 300 mL PEG-400 was added and mixed well, the pH was adjusted to 4-5, and stored at room temperature.
Preparation method of compounds: the compounds were weighed and added to 30% PEG-400+ 70% (5% HP-β-CD) solution (by volume), and ultrasonically processed. After the solution was fully mixed, it is load into glass bottles and stored in a 4° C. refrigerator.
Seventy male Balb/c mice were weighed and randomly divided into 7 groups with 10 mice in each group.
The animal adaptation period was 3 days. It was adapted to shaving on the back. After 2 days, it was sensitized with the modeling solution, coated with 20 μL 0.5% DNCB solution on the right ear of the mouse, applied with 200 μL 0.5% DNCB solution on the back, once a day for 3 days. The mice were stimulated from day 4, and applied with 10 μL 1% DNCB solution on the right ear of mice, 100 μL 1% DNCB solution on the back of mice, respectively, once every 3 days.
On days 3, 9, 15, 21, and 27, the severity of specific dermatitis was evaluated by evaluating four clinical inflammatory indicators of atopic dermatitis: Erythema/bleeding, scar/dryness, edema, and infiltration/erosion. Each evaluation index has four grades: 0, none; 1. slight; 2. moderate; 3. obvious; 4. very obvious. Sum the scores represents score of the skin. […] The spleen was taken and the spleen index was calculated: spleen index=spleen weight (mg)/body weight (g).
The experimental data were expressed by means±standard error (Mean±SEM), and all data were statistically analyzed by one-way ANOVA, with P<0.05 as the statistical difference.

[2] = biological target: JAK1 (Homo sapiens (Human), UniProt P23458); test: In vitro activity test of JAK1 kinase; type: biochemical
Chain of JAK1 (P23458 whole entry): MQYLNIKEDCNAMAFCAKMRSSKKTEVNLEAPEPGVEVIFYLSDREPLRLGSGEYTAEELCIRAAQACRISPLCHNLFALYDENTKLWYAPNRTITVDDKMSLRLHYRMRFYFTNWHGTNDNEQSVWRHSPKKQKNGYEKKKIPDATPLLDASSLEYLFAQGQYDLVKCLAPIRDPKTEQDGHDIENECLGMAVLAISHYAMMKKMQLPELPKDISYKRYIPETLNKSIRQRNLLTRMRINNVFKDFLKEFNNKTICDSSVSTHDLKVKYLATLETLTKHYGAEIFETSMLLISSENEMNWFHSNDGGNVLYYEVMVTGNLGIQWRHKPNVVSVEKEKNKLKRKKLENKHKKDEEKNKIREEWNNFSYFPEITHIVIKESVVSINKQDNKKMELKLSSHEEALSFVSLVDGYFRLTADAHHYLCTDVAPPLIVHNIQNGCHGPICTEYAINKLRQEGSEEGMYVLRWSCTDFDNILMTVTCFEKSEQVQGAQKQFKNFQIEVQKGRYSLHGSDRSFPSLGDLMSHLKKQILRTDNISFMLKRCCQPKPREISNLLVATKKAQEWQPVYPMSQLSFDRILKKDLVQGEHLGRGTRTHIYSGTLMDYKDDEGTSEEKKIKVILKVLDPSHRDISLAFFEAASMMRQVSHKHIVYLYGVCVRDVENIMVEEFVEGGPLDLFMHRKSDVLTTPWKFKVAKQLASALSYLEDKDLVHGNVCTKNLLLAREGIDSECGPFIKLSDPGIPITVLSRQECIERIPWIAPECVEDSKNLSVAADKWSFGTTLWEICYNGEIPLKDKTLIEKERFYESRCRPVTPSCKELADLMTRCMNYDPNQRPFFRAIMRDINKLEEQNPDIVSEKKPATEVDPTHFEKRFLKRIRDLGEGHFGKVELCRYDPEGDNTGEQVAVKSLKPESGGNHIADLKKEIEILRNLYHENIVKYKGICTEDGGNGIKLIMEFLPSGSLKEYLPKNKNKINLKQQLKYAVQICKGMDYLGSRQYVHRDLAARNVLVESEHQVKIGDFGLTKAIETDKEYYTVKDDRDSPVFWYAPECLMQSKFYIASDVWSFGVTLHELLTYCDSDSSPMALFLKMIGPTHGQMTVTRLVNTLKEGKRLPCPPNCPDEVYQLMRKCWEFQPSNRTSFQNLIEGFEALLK
Description: (§1) Recombinant human JAK1, JAK2, JAK3, TyK2 protease, main instruments and reagents were provided by Eurofins in the UK
(§2) All compounds were prepared into a 100% DMSO solution and reached 50 times the final determined concentration. The test compound was diluted by 3 times the concentration gradient, and the final concentration was 10 μM to 0.001 μM, 9 concentrations in total, and the content of DMSO in the detection reaction was 2%. The working stock solution of the compound was added to a determination hole as the first component of the reaction, and then the remaining components were added according to the detailed scheme determination below.
(§3) Mg/ATP mixture was added to start the reaction. After incubation at room temperature for 40 minutes, 0.5% phosphoric acid was added to stop the reaction.

[3] = biological target: JAK3 (Homo sapiens (Human), UniProt P52333); test: In vitro activity test of JAK3 kinase; type: biochemical
Chain of JAK3 (P52333 whole entry): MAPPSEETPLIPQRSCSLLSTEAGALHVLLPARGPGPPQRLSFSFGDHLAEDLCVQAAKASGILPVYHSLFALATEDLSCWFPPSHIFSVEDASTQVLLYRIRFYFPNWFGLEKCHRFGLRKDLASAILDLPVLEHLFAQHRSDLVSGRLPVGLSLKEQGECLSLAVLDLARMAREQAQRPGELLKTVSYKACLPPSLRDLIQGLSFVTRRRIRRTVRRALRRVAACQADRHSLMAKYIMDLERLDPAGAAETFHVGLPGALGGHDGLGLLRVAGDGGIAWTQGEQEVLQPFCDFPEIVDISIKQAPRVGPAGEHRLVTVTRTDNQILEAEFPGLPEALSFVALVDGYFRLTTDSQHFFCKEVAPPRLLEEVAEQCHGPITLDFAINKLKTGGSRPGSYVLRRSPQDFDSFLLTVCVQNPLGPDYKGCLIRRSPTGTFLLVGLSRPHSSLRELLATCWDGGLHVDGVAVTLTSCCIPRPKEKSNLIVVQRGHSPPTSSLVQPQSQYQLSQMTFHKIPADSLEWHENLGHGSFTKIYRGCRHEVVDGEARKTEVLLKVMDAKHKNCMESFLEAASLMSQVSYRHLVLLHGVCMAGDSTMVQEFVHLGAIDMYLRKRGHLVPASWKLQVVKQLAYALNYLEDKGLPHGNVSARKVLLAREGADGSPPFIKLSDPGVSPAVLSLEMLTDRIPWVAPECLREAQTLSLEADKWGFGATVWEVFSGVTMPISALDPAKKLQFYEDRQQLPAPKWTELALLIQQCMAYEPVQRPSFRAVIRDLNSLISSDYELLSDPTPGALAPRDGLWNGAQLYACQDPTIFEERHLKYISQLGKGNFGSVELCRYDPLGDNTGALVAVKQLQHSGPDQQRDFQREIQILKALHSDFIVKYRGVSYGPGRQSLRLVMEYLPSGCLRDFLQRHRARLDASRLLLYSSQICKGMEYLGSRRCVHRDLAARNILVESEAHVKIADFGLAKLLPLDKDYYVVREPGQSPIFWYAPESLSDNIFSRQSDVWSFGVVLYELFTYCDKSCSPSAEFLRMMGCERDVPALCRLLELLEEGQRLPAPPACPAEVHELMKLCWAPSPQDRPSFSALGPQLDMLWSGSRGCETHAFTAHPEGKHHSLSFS
Description: as §1, §2, §3

[4] = biological target: TYK2 (Homo sapiens (Human), UniProt P29597); test: In vitro activity test of TYK2 kinase; type: biochemical
Chain of TYK2 (P29597 whole entry): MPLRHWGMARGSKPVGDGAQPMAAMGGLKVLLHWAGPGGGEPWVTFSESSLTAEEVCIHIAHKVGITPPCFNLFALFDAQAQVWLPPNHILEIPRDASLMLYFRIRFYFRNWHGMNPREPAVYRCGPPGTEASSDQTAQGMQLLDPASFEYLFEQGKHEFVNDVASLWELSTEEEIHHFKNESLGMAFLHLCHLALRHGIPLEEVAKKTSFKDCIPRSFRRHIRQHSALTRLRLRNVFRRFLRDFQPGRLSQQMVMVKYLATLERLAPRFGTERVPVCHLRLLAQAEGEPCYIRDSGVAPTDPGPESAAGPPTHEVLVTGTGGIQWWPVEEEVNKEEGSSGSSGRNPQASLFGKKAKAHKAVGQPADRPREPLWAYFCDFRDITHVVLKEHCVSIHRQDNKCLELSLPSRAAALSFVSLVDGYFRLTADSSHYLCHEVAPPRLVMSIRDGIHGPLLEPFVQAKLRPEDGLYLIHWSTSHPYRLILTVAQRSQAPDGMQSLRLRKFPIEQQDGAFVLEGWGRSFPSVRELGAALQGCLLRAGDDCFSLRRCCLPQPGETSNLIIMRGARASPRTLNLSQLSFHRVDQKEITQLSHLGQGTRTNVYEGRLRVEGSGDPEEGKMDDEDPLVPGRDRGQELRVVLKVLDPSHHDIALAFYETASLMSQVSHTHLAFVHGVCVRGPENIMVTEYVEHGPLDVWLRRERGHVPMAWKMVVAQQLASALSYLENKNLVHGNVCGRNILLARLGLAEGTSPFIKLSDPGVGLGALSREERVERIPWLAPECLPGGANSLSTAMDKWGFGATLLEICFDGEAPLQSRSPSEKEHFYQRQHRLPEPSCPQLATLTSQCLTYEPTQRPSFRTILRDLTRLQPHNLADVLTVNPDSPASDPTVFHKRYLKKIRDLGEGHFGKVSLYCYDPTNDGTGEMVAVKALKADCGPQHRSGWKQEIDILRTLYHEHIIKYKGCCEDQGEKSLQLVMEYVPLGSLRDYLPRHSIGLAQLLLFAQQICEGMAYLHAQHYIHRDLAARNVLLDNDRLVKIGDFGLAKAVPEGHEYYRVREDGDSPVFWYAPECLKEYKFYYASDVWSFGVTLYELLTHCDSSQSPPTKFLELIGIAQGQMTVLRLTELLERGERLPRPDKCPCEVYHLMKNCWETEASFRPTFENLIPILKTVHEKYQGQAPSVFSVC
Description: as §1, §2, §3

[5] = biological target: JAK2 (Homo sapiens (Human), UniProt O60674); test: In vitro activity test of JAK2 kinase; settings: read-out: JAK2 (IC50)
Chain of JAK2 (O60674 whole entry): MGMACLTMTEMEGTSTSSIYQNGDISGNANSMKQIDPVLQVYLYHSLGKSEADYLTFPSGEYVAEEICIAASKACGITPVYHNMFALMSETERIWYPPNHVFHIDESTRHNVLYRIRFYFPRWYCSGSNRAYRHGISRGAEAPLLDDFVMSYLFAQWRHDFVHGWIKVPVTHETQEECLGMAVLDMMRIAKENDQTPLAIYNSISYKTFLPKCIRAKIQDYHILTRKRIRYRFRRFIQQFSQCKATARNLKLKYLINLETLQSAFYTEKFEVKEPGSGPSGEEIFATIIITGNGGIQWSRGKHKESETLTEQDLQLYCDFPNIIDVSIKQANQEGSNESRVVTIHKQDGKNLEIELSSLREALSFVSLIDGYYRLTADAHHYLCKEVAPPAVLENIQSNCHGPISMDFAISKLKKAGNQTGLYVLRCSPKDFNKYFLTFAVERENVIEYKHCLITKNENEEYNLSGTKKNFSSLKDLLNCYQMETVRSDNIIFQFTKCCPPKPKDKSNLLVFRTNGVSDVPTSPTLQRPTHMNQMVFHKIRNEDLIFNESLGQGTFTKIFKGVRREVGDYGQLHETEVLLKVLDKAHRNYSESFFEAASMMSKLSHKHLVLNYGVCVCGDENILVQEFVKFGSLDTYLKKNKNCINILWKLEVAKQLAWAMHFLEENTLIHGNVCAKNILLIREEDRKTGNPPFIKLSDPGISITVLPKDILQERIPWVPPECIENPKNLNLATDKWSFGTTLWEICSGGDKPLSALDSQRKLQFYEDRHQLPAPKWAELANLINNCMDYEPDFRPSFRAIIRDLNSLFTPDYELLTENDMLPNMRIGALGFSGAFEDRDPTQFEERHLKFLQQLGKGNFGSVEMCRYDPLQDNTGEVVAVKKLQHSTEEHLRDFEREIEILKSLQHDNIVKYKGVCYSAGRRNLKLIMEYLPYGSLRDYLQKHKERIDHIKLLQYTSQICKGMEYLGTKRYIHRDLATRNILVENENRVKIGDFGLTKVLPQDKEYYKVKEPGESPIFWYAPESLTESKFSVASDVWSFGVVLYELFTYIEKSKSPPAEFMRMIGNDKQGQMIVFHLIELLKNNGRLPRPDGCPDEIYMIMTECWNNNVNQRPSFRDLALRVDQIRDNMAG

[6] = tested on: DSS induced ulcerative colitis and Crohn's disease in mice; test: In vivo pharmacodynamic study on DSS induced inflammatory bowel disease (IBD) in mice; set-up: species or system mice (C57BL/6); Colon length: unit not given here; settings: for Colon length: after the experiment
Excerpt: Inflammatory bowl disease (IBD) is a kind of recurrent disease. It is difficult to cure, has a high recurrence rate, and has a poor prognosis, it has a certain correlation with the incidence of colon cancer. The development of drugs for the treatment of IBD will help alleviate the symptoms of ulcerative colitis and Crohn's disease and improve the quality of life of patients. The mouse inflammation model induced by dextran sulfate sodium (DSS) is similar to the human disease ulcerative colitis and Crohn's disease. It is a common classical model for preclinical evaluation of drug efficacy.
Preparation method of DSS: 20 g DSS was weighed, 1000 mL drinking water was added to form 2% DSS solution, and stored in a 4° C. refrigerator. It is effective within one month.
Preparation method of a solvent: Vehicle solution is an aqueous solution containing 0.5% methylcellulose and 0.5% Tween 80. Firstly, 5 g of methylcellulose was dissolved in 990 mL of pure water, then 5 g of Tween 80 was added in small amount for many times, mixed evenly and stored at room temperature.
Preparation method of compounds: the compound was weighed, an aqueous solution with a mass ratio of 0.5% methylcellulose+0.5% Tween 80 was added, and it was processed by ultrasonic until it was dissolved.
The adaptation period of the animals was 3 days. After adaptation, the animals were weighed every day. The blank group was given drinking water, and the other groups were given drinking water containing 2% DSS. The water volume was 5 mL/animal/day. The animals in the test drug group were administrated by gavage once a day. The blank group and […] group were given the same volume of vehicle, with the administration volume of 10 mL/kg. Every other day, the fecal viscosity was evaluated, feces were collected for fecal occult blood detection, and the disease activity index (DAI) score was calculated. DSS consumption was detected every day. Fresh DSS solution was replaced every two days. The dosing cycle was continuous intragastric administration for 7 days, followed by 4 days of drug withdrawal, followed by 7 days of continuous intragastric administration. Normal drinking water was changed when intragastric administration was stopped.
DAI is the sum of the scores of body weight, fecal viscosity and fecal occult blood. Among them, the semi quantitative detection method of piramine cave was adopted for detecting fecal occult blood, including adding piramine cave to the sample first, then adding hydrogen peroxide and ethanol solution, and reading and scoring the color within 2 min. Immediately generating purple blue is marked as 4+, generating the purple blue within 10 s is marked as 3+, generating purple red within 1 min is marked as 2+, and gradually generating the purple red within 1-2 min is marked as 1+, and generating no color reaction of purple orchid or purple red within the reading time is recorded as negative (−). After the experiment, the colon and spleen were taken, and the length of colon and the weight of spleen were measured. The spleen index was the ratio of spleen weight to body weight.

[7] = after the experiment, 30 mg/kg p.o. qd, 28 days, Mean±SEM
[8] = day 3, 30 mg/kg p.o. qd from day 4, Mean±SEM
[9] = day 9, 30 mg/kg p.o. qd, Mean±SEM
[10] = day 15, 30 mg/kg p.o. qd, Mean±SEM
[11] = day 21, 30 mg/kg p.o. qd, Mean±SEM
[12] = day 21 of administration, 30 mg/kg p.o.
[13] = day 27, 30 mg/kg p.o. qd, Mean±SEM
[14] = day 2, 30 mg/kg p.o. qd, Mean±SEM
[15] = day 4, 30 mg/kg p.o. qd, Mean±SEM
[16] = day 6, 30 mg/kg p.o. qd, Mean±SEM
[17] = day 8, 30 mg/kg p.o. qd, Mean±SEM
[18] = day 10, 30 mg/kg p.o. qd, Mean±SEM
[19] = day 12, 30 mg/kg p.o. qd, Mean±SEM
[20] = day 13, 30 mg/kg p.o. qd, Mean±SEM
[21] = day 14, 30 mg/kg p.o. qd, Mean±SEM
[22] = day 16, 30 mg/kg p.o. qd, Mean±SEM
[23] = day 18, 30 mg/kg p.o. qd, Mean±SEM
[24] = day 2, 15 mg/kg p.o. qd, Mean±SEM
[25] = day 4, 15 mg/kg p.o. qd, Mean±SEM
[26] = day 6, 15 mg/kg p.o. qd, Mean±SEM
[27] = day 8, 15 mg/kg p.o. qd, Mean±SEM
[28] = day 12, 15 mg/kg p.o. qd, Mean±SEM
[29] = day 14, 15 mg/kg p.o. qd, Mean±SEM
[30] = day 16, 15 mg/kg p.o. qd, Mean±SEM
[31] = day 18, 15 mg/kg p.o. qd, Mean±SEM

`O=C(Nc1nc2cccc(C3CCC4(CC3)CN(C(=O)[C@@H]3CC3(F)F)C4)n2n1)C1CC1` [Compound 1-13] was tested, and the “Effect on treating allergic dermatitis (in words)” value ([1]; 30 mg/kg p.o. qd, DNCB mice) was “good disease treatment effect; also recorded: significant effect”, the “Thickness of the right ear after drug intervention (in words)” value ([1]; 30 mg/kg p.o., vs DNCB group) was “significantly decreased” and the “Thickness of the right ear” value [1, 7] was 0.232 ± 0.004. For the same compound, the Skin score [1, 8] was 0.5 ± 0.5, the Skin score [1, 9] was 3.9 ± 1.6 and the Skin score [1, 10] was 3.7 ± 0.6. The Skin score [1, 11] was 5.0 ± 1.0, the “Effect on skin score compared with positive drug Alonson” value [1, 12] was “better effect” and the “Skin score compared with DNCB group (in words)” value [1, 12] was “significantly decreased”. For the same compound, the Skin score [1, 13] was 1.5 ± 0.5 and the “Skin score compared with DNCB group (in words)” value ([1]; day 27 of administration, 30 mg/kg p.o.) was “significant reduction”.
With `N#CCC(=O)N1CC2(CCC(F)(c3cccc4nc(NC(=O)C5CC5)nn34)CC2)C1` [Compound 4-6] the IC50 [2] was 170 nM, the IC50 [3] was 8450 nM and the IC50 [4] was 307 nM. It also gave an IC50 [5] of 2010 nM.
For `O=C(Nc1nc2cccc(-c3ccc(CN4CCS(=O)(=O)CC4)cc3)n2n1)C1CC1` [Filgotinib, reference compound], the “Colon shortening caused by DSS, compared with DSS group (in words)” value ([6]; 30 mg/kg p.o.) was “can reduce colon shortening”, the “Increase of spleen index induced by DSS (in words)” value ([6]; 30 mg/kg p.o.) was “could reduce the increase of spleen index” and the “Significance of inhibition of spleen index increase” value ([6]; 30 mg/kg p.o., vs DSS group) was “significant inhibitory effect”. The Colon length ([6]; 30 mg/kg p.o. qd, Mean±SEM) was 3.13 ± 0.10, the Weight of mice ([6]; day 1, 30 mg/kg p.o. qd, Mean±SEM) was 22.10 ± 0.42 and the DAI score [6, 14] was 1.20 ± 0.42. The Weight of mice [6, 14] was 22.35 ± 0.41, the Weight of mice ([6]; day 3, 30 mg/kg p.o. qd, Mean±SEM) was 22.11 ± 0.31 and the DAI score [6, 15] was 2.20 ± 0.61. It also gave a Weight of mice [6, 15] of 22.07 ± 0.38, a Weight of mice ([6]; day 5, 30 mg/kg p.o. qd, Mean±SEM) of 21.61 ± 0.47 and a DAI score [6, 16] of 2.90 ± 0.43. The Weight of mice [6, 16] was 21.21 ± 0.55, the Weight of mice ([6]; day 7, 30 mg/kg p.o. qd, Mean±SEM) was 20.28 ± 0.47 and the DAI score [6, 17] was 6.40 ± 0.69. For the same compound, the Weight of mice [6, 17] was 19.65 ± 0.47, the Weight of mice [6, 9] was 18.57 ± 0.49 and the Weight of mice [6, 18] was 17.98 ± 0.62. The Weight of mice ([6]; day 11, 30 mg/kg p.o. qd, Mean±SEM) was 17.85 ± 0.80, the DAI score [6, 19] was 3.56 ± 0.82 and the Weight of mice [6, 19] was 18.27 ± 0.91. The Weight of mice [6, 20] was 19.21 ± 0.94, the DAI score [6, 21] was 3.00 ± 0.57 and the Weight of mice [6, 21] was 20.16 ± 0.61. It also gave a Weight of mice [6, 10] of 21.11 ± 0.58, a DAI score [6, 22] of 3.00 ± 0.96 and a Weight of mice [6, 22] of 21.09 ± 0.53. It also gave a Weight of mice ([6]; day 17, 30 mg/kg p.o. qd, Mean±SEM) of 20.58 ± 0.38, a DAI score [6, 23] of 3.52 ± 0.73 and a Weight of mice [6, 23] of 19.59 ± 0.34. The Spleen index ([6]; ratio of spleen weight to body weight, 30 mg/kg p.o. qd, Mean±SEM) was 4.04 ± 0.18.
In the case of `N#CC1(C(=O)N2CC3(CCC(c4cccc5nc(NC(=O)C6CC6)nn45)CC3)C2)CC1` [Compound 1-11], the “Effect on the weight of mice (in words)” value ([1]; 30 mg/kg p.o. qd, 28 days) is reported as “no significant effect”, the “IgE concentration in serum” value [1, 7] is reported as 7.46 ± 1.34 and the “Thickness of the right ear” value [1, 7] is reported as 0.283 ± 0.006. For the same compound, the Weight of mice ([1]; day 1, 30 mg/kg p.o. qd from day 4, Mean±SEM) was 19.45 ± 0.59, the Skin score [1, 8] was 0.9 ± 0.3 and the Weight of mice [1, 15] was 20.15 ± 0.46. It also gave a Skin score [1, 9] of 3.6 ± 1.1, a Weight of mice [1, 18] of 20.21 ± 0.62 and a Weight of mice [1, 20] of 20.24 ± 0.41. It also gave a Skin score [1, 10] of 4.4 ± 0.8, a Weight of mice [1, 22] of 20.63 ± 0.43 and a Weight of mice ([1]; day 19, 30 mg/kg p.o. qd, Mean±SEM) of 22.50 ± 0.40. It also gave a Skin score [1, 11] of 5.4 ± 0.7, a Weight of mice ([1]; day 22, 30 mg/kg p.o. qd, Mean±SEM) of 23.97 ± 0.42 and a Weight of mice ([1]; day 25, 30 mg/kg p.o. qd, Mean±SEM) of 22.45 ± 0.36. For the same compound, the Skin score [1, 13] was 2.9 ± 1.2, the Weight of mice ([1]; day 28, 30 mg/kg p.o. qd, Mean±SEM) was 22.66 ± 0.34 and the Colon length ([6]; 15 mg/kg p.o. qd, Mean±SEM) was 2.84 ± 0.21. The Weight of mice ([6]; day 1, 15 mg/kg p.o. qd, Mean±SEM) was 22.63 ± 0.29, the DAI score [6, 24] was 0.30 ± 0.15 and the Weight of mice [6, 24] was 22.64 ± 0.28. For the same compound, the Weight of mice ([6]; day 3, 15 mg/kg p.o. qd, Mean±SEM) was 22.20 ± 0.28, the DAI score [6, 25] was 1.50 ± 0.34 and the Weight of mice [6, 25] was 21.75 ± 0.25. It also gave a Weight of mice ([6]; day 5, 15 mg/kg p.o. qd, Mean±SEM) of 20.90 ± 0.30, a DAI score [6, 26] of 3.50 ± 0.27 and a Weight of mice [6, 26] of 20.33 ± 0.28. For the same compound, the Weight of mice ([6]; day 7, 15 mg/kg p.o. qd, Mean±SEM) was 20.64 ± 0.38, the DAI score [6, 27] was 4.20 ± 0.79 and the Weight of mice [6, 27] was 20.44 ± 0.58. It also gave a Weight of mice ([6]; day 9, 15 mg/kg p.o. qd, Mean±SEM) of 19.49 ± 0.77, a Weight of mice ([6]; day 10, 15 mg/kg p.o. qd, Mean±SEM) of 19.00 ± 0.87 and a Weight of mice ([6]; day 11, 15 mg/kg p.o. qd, Mean±SEM) of 19.73 ± 0.77. It also gave a DAI score [6, 28] of 3.11 ± 0.49, a Weight of mice [6, 28] of 20.09 ± 0.90 and a Weight of mice ([6]; day 13, 15 mg/kg p.o. qd, Mean±SEM) of 20.88 ± 0.86. It also gave a DAI score [6, 29] of 3.22 ± 0.79, a Weight of mice [6, 29] of 20.67 ± 0.84 and a Weight of mice ([6]; day 15, 15 mg/kg p.o. qd, Mean±SEM) of 20.82 ± 0.91. The DAI score [6, 30] was 4.44 ± 0.67, the Weight of mice [6, 30] was 20.41 ± 1.05 and the Weight of mice ([6]; day 17, 15 mg/kg p.o. qd, Mean±SEM) was 19.85 ± 1.05. The DAI score [6, 31] was 5.89 ± 0.51 and the Weight of mice [6, 31] was 18.84 ± 1.06.
